Experiment [1] relates to MCh-induced depressor responses. The experiment is described as follows: Methacholine-induced depressor responses in conscious guinea pigs. The class given is in vivo. The conditions noted are these: guinea pig, inhalation.
Source text: Healthy, adult, male Sprague-Dawley guinea pigs (Harlan, Indianapolis, Ind.), weighing between 200 and 300 g were used in these studies. Under isoflurane anesthesia (to effect), animals were instrumented with common carotid artery and jugular vein catheters (PE-50 tubing). The catheters were exteriorized utilizing a subcutaneous tunnel to the subscapular area. All surgical incisions were sutured with 4-0 Ethicon Silk and the catheters locked with heparin (1000 units/mL). Each animal was administered saline (3 mL, SC) at the end of surgery as well as buprenorphine (0.05 mg/kg, IM). Animals were allowed to recover on a heating pad before being returned to their holding rooms.
Approximately 18 to 20 hours following surgery, the animals were weighed and the carotid artery catheter on each animal was connected to a transducer for recording arterial pressure. Arterial pressure and heart rate was recorded using a Biopac MP-100 Acquisition System. Animals were allowed to acclimate and stabilize for a period of 20 minutes.
Each animal was challenged with MCh (0.3 mg/kg, IV) administered through the jugular venous line and the cardiovascular response was monitored for 10 minutes. […] At 1.5 and 24 hours post-dosing, the animals were re-challenged with MCh (0.3 mg/kg, IV) and the hemodynamic response was determined. […]
For experiment [2], the target named is T1, hM2 receptor (CHO-K1 cell membranes) (Homo sapiens, UniProt P08172).
T1 construct: expressed in transfected cells; host or cells: membranes of CHO (CHO-K1) cells stably expressing the cloned human receptor
T1 sequence (P08172 1-466): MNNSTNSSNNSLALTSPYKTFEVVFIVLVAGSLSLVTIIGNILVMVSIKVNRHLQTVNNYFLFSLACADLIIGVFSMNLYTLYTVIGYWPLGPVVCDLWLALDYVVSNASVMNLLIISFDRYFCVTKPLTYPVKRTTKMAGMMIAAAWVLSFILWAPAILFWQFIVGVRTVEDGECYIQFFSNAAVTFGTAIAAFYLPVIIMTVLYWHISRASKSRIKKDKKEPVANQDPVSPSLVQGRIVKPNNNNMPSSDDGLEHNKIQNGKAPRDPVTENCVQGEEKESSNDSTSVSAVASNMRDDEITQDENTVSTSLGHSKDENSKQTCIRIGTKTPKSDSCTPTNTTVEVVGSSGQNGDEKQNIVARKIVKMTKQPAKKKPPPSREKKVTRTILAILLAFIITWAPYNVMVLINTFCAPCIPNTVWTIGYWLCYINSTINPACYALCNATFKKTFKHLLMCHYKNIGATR
Kind of experiment: Blockade of agonist-mediated (oxotremorine-stimulated) [35S]GTPγS binding. The class given is biochemical. Particulars: CHO-K1 cells expressing the hM2 receptor. As for the experimental part: B. Blockade of Agonist-Mediated [^35S]GTPγS Binding
In a second functional assay, the functional potency of test compounds can be determined by measuring the ability of the compounds to block oxotremorine-stimulated [^35S]GTPγS binding in CHO—K1 cells expressing the hM2 receptor.
At the time of use, frozen membranes were thawed and then diluted in assay buffer with a final target tissue concentration of 5-10 μg protein per well. The membranes were briefly homogenized using a Polytron PT-2 100 tissue disrupter and then added to the assay plates.
The EC90 value (effective concentration for 90% maximal response) for stimulation of[^35S]GTPγS binding by the agonist oxotremorine was determined in each experiment.
To determine the ability of a test compound to inhibit oxotremorine-stimulated [^35S]GTPγS binding, the following was added to each well of 96 well plates: 25 μL of assay buffer with [^35S]GTPγS (0.4nM), 25 μL of oxotremorine(ECgo) and GDP (3 μM), 25 μL of diluted test compound and 25 μL CHO cell membranes expressing the hM2 receptor. […] Microscint-20 scintillation liquid (50 μL) was added to each well, and each plate was sealed and radioactivity counted on a topcounter (PerkinElmer). Data were analyzed by nonlinear regression analysis with the GraphPad Prism Software package (GraphPad Software, Inc., San Diego, Calif.) using the non-linear regression, one-site competition equation. […]

For a further experiment, the target named is T2, hM3 receptor (CHO cells) (Homo sapiens, UniProt P20309).
T2 construct: expressed in transfected cells
The experiment is described as follows: Blockade of agonist-mediated calcium release via FLIPR assay. The class given is cell-based. The conditions noted are these: CHO cells stably expressing the hM3 receptor. From the text: C. Blockade of Agonist-Mediated Calcium Release via FLIPR Assays
Muscarinic receptor subtypes (M1, M3 and M5 receptors), which couple to Gq proteins, activate the phospholipase C (PLC) pathway upon agonist binding to the receptor. As a result, activated PLC hydrolyzes phosphatyl inositol diphosphate (PIP2) to diacylglycerol (DAG) and phosphatidyl-1,4,5-triphosphate (IP3), which in turn generates calcium release from intracellular stores, i.e., endoplasmic and sarcoplasmic reticulum. […] This fluorescence event was measured in real time by the FLIPR, which detected the change in fluorescence from a monolayer of cells cloned with human M1 and M3, and chimpanzee M5 receptors. Antagonist potency was determined by the ability of antagonists to inhibit agonist-mediated increases in intracellular calcium. […]
To determine antagonist potency, the dose-dependent stimulation of intracellular Ca^2+release for oxotremorine was first determined so that antagonist potency can later be measured against oxotremorine stimulation at an EC90 concentration. […] Baseline was determined by measuring the change in fluorescence for 10 seconds prior to addition of agonist. Following agonist stimulation, the FLIPR continuously measured the change of fluorescence every 0.5 to 1 second for 1.5 minutes to capture the maximum fluorescence change. […]

The target of experiment [3] is T3, hM2 receptor (CHO-K1 cells) (Homo sapiens, UniProt P08172).
T3 construct: expressed in transfected cells; host or cells: CHO-K1 cells
T3 sequence (P08172 1-466): T1 sequence (P08172 1-466)
Kind of experiment: Blockade of agonist-mediated (oxotremorine) inhibition of forskolin-mediated cAMP accumulation. Particulars: CHO-K1 cells expressing the hM2 receptor. The class given is cell-based. As for the experimental part: A. Blockade of Agonist-Mediated Inhibition of cAMP Accumulation
In this assay, the functional potency of a test compound was determined by measuring the ability of the test compound to block oxotremorine-inhibition of forskolin-mediated cAMP accumulation in CHO—K1 cells expressing the hM2 receptor.
cAMP assays were performed in a radioimmunoassay format using the Flashplate Adenylyl Cyclase Activation Assay System with ^1251-cAMP (NEN SMP004B, PerkinElmer Life Sciences Inc., Boston, Mass.), according to the manufacturer's instructions.
Cells were rinsed once with dPBS and lifted with Trypsin-EDTA solution (0.05% trypsin/0.53 mM EDTA) as described in the Cell Culture and Membrane Preparation section above. […] The cell pellet was then re-suspended in 10 mL dPBS, and the cells were counted with a Coulter Z1 Dual Particle Counter (Beckman Coulter, Fullerton, Calif.). […]
Reactions were incubated for 10 minutes at 37° C. and stopped by addition of 100 μL ice-cold detection buffer. Plates were sealed, incubated overnight at room temperature and counted the next morning on a PerkinElmer TopCount liquid scintillation counter (PerkinElmer Inc., Wellesley, Mass.). The amount of cAMP produced (pmol/well) was calculated based on the counts observed for the samples and cAMP standards, as described in the manufacturer's user manual. […]

The subject of experiment [4] is ACh-induced bronchoconstriction. Kind of experiment: Duration of bronchoprotection in guinea pig model of acetylcholine-induced bronchoconstriction. The class given is in vivo. Particulars: inhalation, 1.5 hours post-dose. The method, then: Groups of six male guinea pigs (Duncan-Hartley (HsdPoc:DH) Harlan, Madison, Wisc.) weighing between 250 and 350 g were individually identified by cage cards. Throughout the study animals were allowed access to food and water ad libitum.
Test compounds were administered via inhalation over 10 minutes in a whole-body exposure dosing chamber (R&S Molds, San Carlos, Calif.). The dosing chambers were arranged so that an aerosol was simultaneously delivered to 6 individual chambers from a central manifold. Guinea pigs were exposed to an aerosol of a test compound or vehicle (WFI). […] This was measured gravimetrically by comparing pre-and post-nebulization weights of the filled nebulizer.
The bronchoprotective effects of test compounds administered via inhalation were evaluated using whole body plethysmography at 1.5, 24, 48 and 72 hours post-dose.
Forty-five minutes prior to the start of the pulmonary evaluation, each guinea pig was anesthetized with an intramuscular injection of ketamine (43.75 mg/kg), xylazine (3.50 mg/kg) and acepromazine (1.05 mg/kg). […] The depth of anesthesia was monitored and adjusted if the animal responded to pinching of its paw or if the respiration rate was greater than 100 breaths/minute. […]
Starting this program initiated the experimental protocol and data collection. […] By integrating this signal over time, a measurement offlow was calculated for each breath. […]

The subject of experiment [5] is pilocarpine-evoked salivation. Kind of experiment: Inhalation guinea pig salivation assay (pilocarpine-evoked salivation). The class given is in vivo.
Procedure: Guinea pigs (Charles River, Wilmington, Mass.) weighing 200-350 g were acclimated to the in-house guinea pig colony for at least 3 days following arrival. Test compound or vehicle were dosed via inhalation (IH) over a 10 minute time period in a pie shaped dosing chamber (R&S Molds, San Carlos, Calif.). Test solutions were dissolved in sterile water and delivered using a nebulizer filled with 5.0 mL of dosing solution. Guinea pigs were restrained in the inhalation chamber for 30 minutes. During this time, guinea pigs were restricted to an area of approximately 110 sq. cm. This space was adequate for the animals to turn freely, reposition themselves, and allow for grooming. […] Upon completion of nebulization, guinea pigs were evaluated at 1.5, 6, 12, 24, 48, or 72 hrs after treatment.
Guinea pigs were anesthetized one hour before testing with an intramuscular (IM) injection of a mixture of ketamine 43.75 mg/kg, xylazine 3.5 mg/kg, and acepromazine 1.05 mg/kg at an 0.88 mL/kg volume. […] Saliva was collected for 10 minutes, at which point the gauze pad was weighed and the difference in weight recorded to determine the amount of accumulated saliva (in mg). The mean amount of saliva collected for animals receiving the vehicle and each dose of test compound was calculated. […] Results were calculated using result means (n=3 or greater). […]

SMILES strings stand for the structures.

For orientation: Ki means a dissociation constant, usually derived from enzyme kinetics or from competition with a known ligand.

T2 sequence (P20309 whole entry): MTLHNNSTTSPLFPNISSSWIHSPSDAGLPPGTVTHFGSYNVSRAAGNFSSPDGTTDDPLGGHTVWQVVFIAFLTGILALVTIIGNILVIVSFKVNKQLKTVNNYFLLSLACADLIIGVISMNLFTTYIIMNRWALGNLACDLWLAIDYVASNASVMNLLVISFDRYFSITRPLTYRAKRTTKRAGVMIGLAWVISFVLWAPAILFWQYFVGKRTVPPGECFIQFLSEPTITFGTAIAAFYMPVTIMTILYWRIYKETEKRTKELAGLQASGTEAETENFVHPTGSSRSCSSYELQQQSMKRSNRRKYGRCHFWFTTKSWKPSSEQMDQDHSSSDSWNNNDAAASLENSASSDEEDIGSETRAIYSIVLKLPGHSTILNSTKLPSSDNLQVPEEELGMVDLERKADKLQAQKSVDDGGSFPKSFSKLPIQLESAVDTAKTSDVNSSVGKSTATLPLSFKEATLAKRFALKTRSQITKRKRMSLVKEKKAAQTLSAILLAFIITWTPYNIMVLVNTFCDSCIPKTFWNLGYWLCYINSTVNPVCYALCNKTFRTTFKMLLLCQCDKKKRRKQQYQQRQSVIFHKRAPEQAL

Consider `O=C(CCN1CCC(OC(=O)Nc2ccccc2-c2ccccc2)CC1)NCCCCCNCCc1ccc(O)cc1` [Example 1, Biphenyl-2-ylcarbamic Acid 1-(2-{5-[2-(4-Hydroxyphenyl)ethylamino]pentylcarbamoyl}ethyl)piperidin-4-yl Ester], for which the “apparent lung-selectivity index (ratio of anti-depressor ID50 to bronchoprotective ID50)” value in experiment [1] is “greater than 5”.

Consider `O=C(CCN1CCC(OC(=O)Nc2ccccc2-c2ccccc2)CC1)NCCCCCNCc1ccc(O)cc1` [Example 2, Biphenyl-2-ylcarbamic Acid 1-{2-[5-(4-Hydroxybenzylamino)pentylcarbamoyl]ethyl}piperidin-4-yl Ester], for which the inhibition constant Ki (in experiment [2]; at hM3 receptor (CHO cells)) was less than 10 nM each time.

`CN(CCCCCNC(=O)CCN1CCC(OC(=O)Nc2ccccc2-c2ccccc2)CC1)Cc1ccc(O)cc1` [Example 3, Biphenyl-2-ylcarbamic Acid 1-(2-{5-[(4-Hydroxybenzyl)methylamino]pentylcarbamoyl}ethyl)piperidin-4-yl Ester] gave a Ki in experiment [3] of less than 10 nM. Further, the “PD2(50) for ACh-induced bronchoconstriction” value in experiment [4] is given as “less than 200 μg/mL”.

For the molecule `N[C@@H](Cc1ccc(O)cc1)C(=O)NCCCCCNC(=O)CCN1CCC(OC(=O)Nc2ccccc2-c2ccccc2)CC1` [Example 6, Biphenyl-2-ylcarbamic Acid 1-(2-{5-[(S)-2-Amino-3-(4-Hydroxyphenyl)propionylamino]pentylcarbamoyl}ethyl)piperidin-4-yl Ester], in experiment [5], the “apparent lung selectivity index (ratio of anti-sialagogue ID50 to bronchoprotective ID50)” value is “greater than 5”.

Values taken from US7569588B2, “Biphenyl compounds useful as muscarinic receptor antagonists” (Theravance, Inc., priority 2004, dated 2009).
